EC50 data for 22 compounds are collected here from patent publication US10604527B2, “Pyrazine compounds for the treatment of hepatitis B infection” (Hoffmann-La Roche Inc., priority 2016, dated 2020).

This assay has as its system HBV. Description: HBV inhibition assay in HepG2.2.15 cells (extracellular HBV DNA by qPCR). It counts as cell-based. As to conditions: Hepatitis B virus, 120 h, extracellular HBV DNA in culture supernatant by qPCR, five days after compound treatment. The method, then:
HepG2.2.15 is a stably-transfected cell line containing the HBV genome. It is derived from the hepatoblastoma cell line Hep G2 (American Type Culture Collection, ATCC® HB-8065™) by the published procedures described in reference: M A Selles et al. Proc. Natl. Acad. Sci. USA 1987, 84, 1005-1009. The cell line was maintained in Dulbecco's modified Eagle's medium (DMEM)-F12 medium supplemented with 10% fetal bovine serum, 20 mM L-glutamine, 0.1 mM NEAA, 50 U/mL penicillin, 50 μg/mL streptomycin, and 0.3 mg/mL of G418.
HepG2.2.15 cells were seeded into 96-well plates at a density of 3×10^4 cells per well in 100 μL DMEM/F12 media (Life Science, Cat. #: 11320-033) supplemented with 2.5% fetal bovine serum, 20 mM L-glutamine, 0.1 mM NEAA, 50 U/mL penicillin, 50 U/mL streptomycin and cultured overnight at 37° C. The test compounds were serially half-log diluted in DMSO, then diluted 100 times in culture media. 100 μL diluted solution of tested compounds were added into the plates to reach 0.5% final concentration of DMSO in every well. Five days after compound treatment, culture supernatant was collected for further analysis.
For quantitative PCR detection of extracellular HBV DNA, culture supernatant was processed by 500 μg/mL Proteinase K (Sigma, Cat. #: P2308) digestion at 50° C. for 1 hour. After heat inactivation of the enzyme at 95° C. for 15 minutes, the samples were subjected to HBV DNA quantification by qPCR. The effective compound concentration at which HBV replication inhibited by 50% (EC50) was determined.

Each structure is given as a SMILES string.

Broadly, the EC50 is the concentration at which the effect is half-maximal. High values mean a less potent agent, low ones a more potent agent.

Take `CC1Cn2ncc(S(=O)(=O)C3CCOC3)c2CN1C(=O)Nc1ccc(F)c(Cl)c1` (stereo not shown) [Example 10, N-(3-chloro-4-fluoro-phenyl)-6-methyl-3-tetrahydrofuran-3-ylsulfonyl-6,7-dihydro-4H-pyrazolo[1,5-a]pyrazine-5-carboxamide]: the EC50 is 32 nM.

For `COCCS(=O)(=O)N(C)c1cnn2c1CN(C(=O)Nc1cc(F)c(F)c(F)c1)[C@@H](C)C2` [Example 39, (6S)-3-[2-methoxyethylsulfonyl(methyl)amino]-6-methyl-N-(3,4,5-trifluorophenyl)-6,7-dihydro-4H-pyrazolo[1,5-a]pyrazine-5-carboxamide], a half-maximal effect (EC50) was put at 664 nM. Compared with the last compound, the EC50 is about 21-fold higher. `C[C@H]1Cn2ncc(S(=O)(=O)C3CCOC3)c2CN1C(=O)Nc1cc(F)c(F)c(F)c1` (stereo partly drawn) [Example 16, (6S)-6-methyl-3-tetrahydrofuran-3-ylsulfonyl-N-(3,4,5-trifluorophenyl)-6,7-dihydro-4H-pyrazolo[1,5-a]pyrazine-5-carboxamide] showed an EC50 of 77 nM. Next, `C[C@H]1Cn2ncc(S(=O)(=O)N[C@H]3CCOC3)c2CN1C(=O)Nc1ccc(F)c(Cl)c1` [Example 26, (6S)-N-(3-chloro-4-fluoro-phenyl)-6-methyl-3-[[(3S)-tetrahydrofuran-3-yl]sulfamoyl]-6,7-dihydro-4H-pyrazolo[1,5-a]pyrazine-5-carboxamide]: 365 nM.

In the case of `CC(C)S(=O)(=O)c1cnn2c1CN(C(=O)Nc1ccnc(Cl)c1)[C@@H](C)C2` [Example 18, (6S)-N-(2-chloro-4-pyridyl)-3-isopropylsulfonyl-6-methyl-6,7-dihydro-4H-pyrazolo[1,5-a]pyrazine-5-carboxamide], the EC50 came to 471 nM. `C[C@H]1Cn2ncc(Oc3ncccn3)c2CN1C(=O)Nc1cc(F)c(F)c(F)c1` [Example 8, (6S)-6-methyl-3-pyrimidin-2-yloxy-N-(3,4,5-trifluorophenyl)-6,7-dihydro-4H-pyrazolo[1,5-a]pyrazine-5-carboxamide] displayed an EC50 of 713 nM.

On to `C[C@H]1Cn2ncc(S(=O)(=O)C3CCOCC3)c2CN1C(=O)Nc1ccc(F)c(Cl)c1` [Example 15, (6S)-N-(3-chloro-4-fluoro-phenyl)-6-methyl-3-tetrahydropyran-4-ylsulfonyl-6,7-dihydro-4H-pyrazolo[1,5-a]pyrazine-5-carboxamide], for which the EC50 is 97 nM. The result for `CC(=O)N(C)c1cnn2c1CN(C(=O)Nc1cc(F)c(F)c(F)c1)[C@@H](C)C2` [Example 38, (6S)-3-[acetyl(methyl)amino]-6-methyl-N-(3,4,5-trifluorophenyl)-6,7-dihydro-4H-pyrazolo[1,5-a]pyrazine-5-carboxamide] reads 457 nM. The compound `CCS(=O)(=O)N(C)c1cnn2c1CN(C(=O)Nc1cc(F)c(F)c(F)c1)[C@@H](C)C2` [Example 40, (6S)-3-[ethylsulfonyl(methyl)amino]-6-methyl-N-(3,4,5-trifluorophenyl)-6,7-dihydro-4H-pyrazolo[1,5-a]pyrazine-5-carboxamide] returned an EC50 of 169 nM. `C[C@H]1Cn2ncc(S(=O)(=O)C3CCOC3)c2CN1C(=O)Nc1ccc(F)c(Cl)c1` (stereo partly drawn) [Example 14, (6S)-N-(3-chloro-4-fluoro-phenyl)-6-methyl-3-tetrahydrofuran-3-ylsulfonyl-6,7-dihydro-4H-pyrazolo[1,5-a]pyrazine-5-carboxamide] registered an EC50 of 55 nM. For the compound `C[C@H]1Cn2ncc(S(=O)(=O)NC(C)(C)CO)c2CN1C(=O)Nc1cc(F)c(F)c(F)c1` [Example 27, (6S)-3-[(2-hydroxy-1,1-dimethyl-ethyl)sulfamoyl]-6-methyl-N-(3,4,5-trifluorophenyl)-6,7-dihydro-4H-pyrazolo[1,5-a]pyrazine-5-carboxamide], the response was half-maximal at 156 nM (EC50). With `C[C@H]1Cn2ncc(N(C)S(=O)(=O)C3CC3)c2CN1C(=O)Nc1cc(F)c(F)c(F)c1` [Example 41, (6S)-3-[cyclopropylsulfonyl(methyl)amino]-6-methyl-N-(3,4,5-trifluorophenyl)-6,7-dihydro-4H-pyrazolo[1,5-a]pyrazine-5-carboxamide], the EC50 worked out at 86 nM. Next, `C[C@H]1Cn2ncc(S(=O)(=O)C3CCOC3)c2CN1C(=O)Nc1ccnc(Cl)c1` (stereo partly drawn) [Example 17, (6S)-N-(2-chloro-4-pyridyl)-6-methyl-3-tetrahydrofuran-3-ylsulfonyl-6,7-dihydro-4H-pyrazolo[1,5-a]pyrazine-5-carboxamide]: 871 nM. `CC1Cn2ncc(OC3CCCC3)c2CN1C(=O)Nc1ccc(F)c(Cl)c1` (stereo not shown) [Example 2, N-(3-chloro-4-fluoro-phenyl)-3-(cyclopentoxy)-6-methyl-6,7-dihydro-4H-pyrazolo[1,5-a]pyrazine-5-carboxamide] registered an EC50 of 8 nM. The result for `CC(C)S(=O)(=O)c1cnn2c1CN(C(=O)Nc1ccnc(C(F)F)c1)[C@@H](C)C2` [Example 21, (6S)-N-[2-(difluoromethyl)-4-pyridyl]-3-isopropylsulfonyl-6-methyl-6,7-dihydro-4H-pyrazolo[1,5-a]pyrazine-5-carboxamide] reads 272 nM; that for `C[C@H]1Cn2ncc(S(=O)(=O)C3CCC(O)C3)c2CN1C(=O)Nc1cc(F)c(F)c(F)c1` (stereo partly drawn) [Example 34, (6S)-3-(3-hydroxycyclopentyl)sulfonyl-6-methyl-N-(3,4,5-trifluorophenyl)-6,7-dihydro-4H-pyrazolo[1,5-a]pyrazine-5-carboxamide], 96 nM; that for `CC(C)CS(=O)(=O)c1cnn2c1CN(C(=O)Nc1ccc(F)c(Cl)c1)C(C)C2` (stereo not shown) [Example 13, N-(3-chloro-4-fluoro-phenyl)-3-isobutylsulfonyl-6-methyl-6,7-dihydro-4H-pyrazolo[1,5-a]pyrazine-5-carboxamide], 24 nM. `C[C@H]1Cn2ncc(S(=O)(=O)C3CCCC3)c2CN1C(=O)Nc1ccnc(Cl)c1` [Example 19, (6S)-N-(2-chloro-4-pyridyl)-3-cyclopentylsulfonyl-6-methyl-6,7-dihydro-4H-pyrazolo[1,5-a]pyrazine-5-carboxamide] returned an EC50 of 134 nM.

For `C[C@H]1Cn2ncc(S(=O)(=O)C3CC3)c2CN1C(=O)Nc1cc(F)c(F)c(F)c1` [Example 22, (6S)-3-cyclopropylsulfonyl-6-methyl-N-(3,4,5-trifluorophenyl)-6,7-dihydro-4H-pyrazolo[1,5-a]pyrazine-5-carboxamide], the EC50 stood at 78 nM. The result for `C[C@H]1Cn2ncc(S(=O)(=O)N(C)C)c2CN1C(=O)Nc1ccc(F)c(Cl)c1` [Example 24, (6S)-N-(3-chloro-4-fluoro-phenyl)-3-(dimethylsulfamoyl)-6-methyl-6,7-dihydro-4H-pyrazolo[1,5-a]pyrazine-5-carboxamide] reads 142 nM; that for `C[C@H]1Cn2ncc(S(=O)(=O)N3CCCC3)c2CN1C(=O)Nc1ccc(F)c(Cl)c1` [Example 23, (6S)-N-(3-chloro-4-fluoro-phenyl)-6-methyl-3-pyrrolidin-1-ylsulfonyl-6,7-dihydro-4H-pyrazolo[1,5-a]pyrazine-5-carboxamide], 78 nM; that for `C[C@H]1Cn2ncc(OC3CCNC3=O)c2CN1C(=O)Nc1ccc(F)c(Cl)c1` (stereo partly drawn) [Example 5, (6S)-N-(3-chloro-4-fluoro-phenyl)-6-methyl-3-(2-oxopyrrolidin-3-yl)oxy-6,7-dihydro-4H-pyrazolo[1,5-a]pyrazine-5-carboxamide], 434 nM.
